From US20070049635A1 (priority 2003, published 2007)
Where two headings read alike, the source gives them in different places.

Columns and labels:
[1] = test system: Pyricularia oryzae; type: in vivo; conditions: wettable powder diluted to 200 ppm sprayed on rice pots (Koshihikari, 2-leaf stage); spore spray-inoculation; examined after 7 days
[2] = test system: Pyricularia oryzae; type: in vivo; conditions: granules applied to water surface at 1.5 kg/10 ares; rice Koshihikari; inoculated 30 days after application; lesions examined after 1 week

Row | Molecule | Effect (preventive value) [1] | Effect (preventive value) [2]
1 | Cc1ccc(C(=O)NC(CNC(=O)OC(C(F)(F)F)C(F)(F)F)C(C)C)cc1 (stereo not shown) [Compound No. 8, N-(1,1,1,3,3,3-hexafluoro-2-propyloxycarbonyl)-N′-(4-methylbenzoyl)-3-methyl-1,2-butanediamine] | A (80% or more) | 
2 | Cc1ccc(C(=O)NC(CNC(=O)OC2CCCCC2Cl)C(C)C)cc1 (stereo not shown) [Compound No. 17, N-(2-chlorocyclohexyloxycarbonyl)-N′-(4-methylbenzoyl)-3-methyl-1,2-butanediamine] | A (80% or more) | 
3 | Cc1ccc(C(=O)NCC(NC(=O)Oc2ccc3ccccc3c2)C(C)C)cc1 (stereo not shown) [Formula (7), reference compound] | C (less than 50%) | C (less than 50%)
4 | CSCC(C)OC(=O)NC(CNC(=O)c1ccc(C)cc1)C(C)C (stereo not shown) [Formula (8), reference compound] | C (less than 50%) | C (less than 50%)
5 | Cc1ccc(C(=O)NCC(NC(=O)OCCF)C(C)C)cc1 (stereo not shown) [compound 2] | A (80% or more) | A (80% or more)
6 | Cc1ccc(C(=O)NCC(NC(=O)OCCCl)C(C)C)cc1 (stereo not shown) [compound 3] | A (80% or more) | 
7 | Cc1ccc(C(=O)NCC(NC(=O)OCCBr)C(C)C)cc1 (stereo not shown) [compound 4] | A (80% or more) | 
8 | Cc1ccc(C(=O)NCC(NC(=O)OCCI)C(C)C)cc1 (stereo not shown) [compound 5] | A (80% or more) | 
9 | Cc1ccc(C(=O)NCC(NC(=O)OC(CF)CF)C(C)C)cc1 (stereo not shown) [compound 9] | A (80% or more) | 
10 | Cc1ccc(C(=O)NCC(NC(=O)OCCCCl)C(C)C)cc1 (stereo not shown) [compound 10] | A (80% or more) | 
11 | Cc1ccc(C(=O)NCC(NC(=O)OC(CBr)CBr)C(C)C)cc1 (stereo not shown) [compound 11] | B (50% or more and less than 80%) | 
12 | Cc1ccc(C(=O)NCC(NC(=O)OCC(F)(F)C(F)(F)C(F)(F)F)C(C)C)cc1 (stereo not shown) [compound 13] | A (80% or more) | 
13 | Cc1ccc(C(=O)NCC(NC(=O)OCCC(F)(F)C(F)(F)C(F)(F)C(F)(F)F)C(C)C)cc1 (stereo not shown) [compound 14] | B (50% or more and less than 80%) | 
14 | C=C(Cl)COC(=O)NC(CNC(=O)c1ccc(C)cc1)C(C)C (stereo not shown) [compound 15] | A (80% or more) | A (80% or more)
15 | Cc1ccc(C(=O)NCC(NC(=O)OC2CCCCC2F)C(C)C)cc1 (stereo not shown) [compound 16] | A (80% or more) | 
16 | Cc1ccc(C(=O)NCC(NC(=O)OCC(F)(F)F)C(C)(C)C)cc1 (stereo not shown) [compound 24] | A (80% or more) | A (80% or more)
17 | CCC(C)C(CNC(=O)c1ccc(C)cc1)NC(=O)OCC(F)(F)F (stereo not shown) [compound 25] | A (80% or more) | A (80% or more)
18 | CC(C)C(CNC(=O)c1cc2ccccc2o1)NC(=O)OCC(F)(F)F (stereo not shown) [compound 28] | A (80% or more) | A (80% or more)
19 | Cc1ccc(C(=O)NCC(NC(=O)OC(C)C(F)(F)F)C(C)C)cc1 (stereo not shown) [compound 30] | A (80% or more) | A (80% or more)
20 | CC(C)(C)C(CNC(=O)c1cc2ccccc2o1)NC(=O)OCC(F)(F)F (stereo not shown) [compound 31] | A (80% or more) | A (80% or more)
21 | CCC(C)C(CNC(=O)c1cc2ccccc2o1)NC(=O)OCC(F)(F)F (stereo not shown) [compound 32] | A (80% or more) | 
22 | CCC(C)C(CNC(=O)c1nc2ccccc2s1)NC(=O)OCC(F)(F)F (stereo not shown) [compound 33] | A (80% or more) | 
23 | CC(C)C(CNC(=O)c1cc2ccccc2s1)NC(=O)OCC(F)(F)F (stereo not shown) [compound 34] | A (80% or more) | 
24 | Cc1ccc(C(=O)NCC(NC(=O)OCC(F)(F)F)C2CCCC2)cc1 (stereo not shown) [compound 36] | A (80% or more) | 
25 | CC(C)C(CNC(=O)c1nc2ccc(F)cc2s1)NC(=O)OCC(F)(F)F (stereo not shown) [compound 37] | A (80% or more) | 
26 | CC(C)C(CNC(=O)c1nc2ccccc2s1)NC(=O)OCC(F)(F)F (stereo not shown) [compound 38] | A (80% or more) | 
27 | CCC(CC)C(CNC(=O)c1ccc(C)cc1)NC(=O)OCC(F)(F)F (stereo not shown) [compound 39] | A (80% or more) | 
28 | N-(2,2,2-trichloroethyloxycarbonyl)-N′-(4-methylbenzoyl)-3-methyl-1,2-butanediamine [Compound No. 7] | A (80% or more) | 
29 | N-(2,2,2-trifluoroethyloxycarbonyl)-N′-(4-methylbenzoyl)-3-methyl-1,2-butanediamine [Compound No. 6] | A (80% or more) | A (80% or more)
30 | N-(chloromethyloxycarbonyl)-N′-(4-methylbenzoyl)-3-methyl-1,2-butanediamine [Compound No. 1] |  | A (80% or more)
